The text below walks through data of patent US20220304307A1, “SYNERGISTIC MIXTURES FOR ARTHROPOD TOXICITY AND REPELLENCY” (University of Florida Research Foundation, Incorporated, priority 2019, published 2022).

Data set [1] relates to Orlando insecticide-susceptible strain of Ae. aegypti (female mosquitoes). The data set is described as follows: Glass tube spatial repellency assay. In kind it is in vivo, Aedes aegypti. Here is the method: (§1) The following assay was conducted according to the procedures of Jiang et al., 2019 (Jiang S., Yang L, and Bloomquist J (2019) High-throughput screening method for evaluating spatial repellency and vapor toxicity to mosquitoes. Med. Vet. Entomol.). For assessing behavioral repellency (FIG. 1), sixteen female Aedes aegypti mosquitoes were transferred to a glass tube (12.5 cm long, 2.5 cm outer diameter) with the ends covered with netting. Metofluthrin, bifenthrin, permethrin, pyrethrum, transfluthrin, deltamethrin, esfenvalerate, metofluthrin acid, bifenthrin acid, phenothrin acid, transchryanthemic acid, transfluthrin acid, deltamethrin acid, and fenvalerate acid were each dissolved in 1 mL of acetone and serial dilutions ranging from 30-0.01 μg/ml were made. Circular filter papers (5 cm^2) were saturated with 50 μL of each concentration and allowed 10 min for solvent evaporation. The filter papers were then placed in clear conical polypropylene caps and fixed to the end of the glass tubes. The netting prevented mosquito contact with the filter paper. Tubes were then aligned with a mark denoting the midline and the proportion of mosquitoes on the chemically treated side was scored at 15, 30, and 60 min. At the end of the test, the tube was placed in a cage and the ability of the mosquitoes to fly out of the tube was assessed for 30 min. […] This post-test evaluated whether any non-responding mosquitoes (not repelled) was due to intoxication or disorientation from the test chemical. For vapor toxicity, the assay was identical, except that mosquitoes were kept in the tube for 24 hr without the post-test at 1 hr, and the mortality was recorded at 24 hr.

In data set [2] the test system is PR (resistant) strain of Ae. aegypti antenna. In words: Electroantennography (EAG) responses, PR strain. Set-up: species or system Aedes aegypti. The following applies: 10 mg odorant, air puff. An excerpt: (§2) Electroantennography (EAG) responses of OR (susceptible) and PR (resistant) strains of Ae. Aegypti were then obtained for TF, TFA, and TCA (FIGS. 10A and 10B). In these experiments, an air puff stimulus with odorant was blown over an antenna suspended between 2 electrodes and represented the summed electrical response of all the chemo-receptive hairs. All compounds gave responses, with TF the largest (FIG. 10A).

Data set [3] relates to insecticide-susceptible Aedes aegypti (Orlando strain) females. In words: Glass tube vapor toxicity assay (24 hr mortality). Here is the method:
as §1
Synergism ratio (SR)=LC50 pyrethroid/LC50 pyrethroid+EO.

Data set [4] concerns OR (susceptible) strain of Ae. aegypti antenna. In words: Electroantennography (EAG) responses, OR strain. The arrangement: species or system Aedes aegypti. To be noted: 10 mg odorant, air puff.
Source text: as §2

Data set [5] has as its system pyrethroid-resistant Puerto Rico (PR) strain of Ae. aegypti. The data set is described as follows: Glass tube spatial repellency assay, resistant strain. In kind it is in vivo, Aedes aegypti. The following applies: repellency resistance ratio; compound alone. Here is the method:
as §1
EC50 values were calculated from non-linear regression to a four parameter logistic equation (Prism, GraphPad Software, San Diego, Calif.) of the curves shown in FIG. 4. RR=resistance ratio. NA=data not yet available.

On to `CC1(C)[C@H](C=C(Cl)Cl)[C@H]1C(=O)OCc1c(F)c(F)cc(F)c1F` [Transfluthrin, reference compound], for which the “mortality in repellency screening” value in data set [1] (100 μg/cm^2, 1 hr exposure) is reported as “significant mortality”. In data set [1] (applied as mixture with TFA (50 μg/cm^2), 1 hr), the “repellency EC50 (+TFA)” value worked out at 0.11 μg/cm^2. Also, the “synergism of repellency with citronella” value in data set [1] (citronella at its EC20 (20 μg/cm^2)) was “not”. The “repellency EC50” value in data set [1] (compound alone, 1 hr) stood at 0.5 μg/cm^2. For the same compound, the “synergist ratio SR (EC50 compound alone/EC50 compound+TFA)” value in data set [1] (repellency, TFA 50 μg/cm^2 as mixture) is “about 5”. In data set [2], the “EAG response in PR strain relative to OR” value was “reduced”. Also, the “synergism ratio of vapor toxicity, +TFA” value in data set [3] (TFA 50 μg/cm^2) is 2.3. Moreover, the “LC50 (24 h vapor toxicity)” value in data set [3] (pyrethroid alone) is listed as 0.16 μg/cm^2. In addition, the “LC50 +TFA” value in data set [3] (with TFA (50 μg/cm^2), 24 h) is 0.07 μg/cm^2. In addition, in data set [4], the “EAG response” value is “largest”. For the same compound, the “RR (PR EC50/OR EC50)” value in data set [5] was 4.7.
